# Paper PMC12717099, “Peptidoglycan recruitment by a penicillin binding protein” (Nature Communications, 2025)
# Tests used:
# [1] = system: E. faecium D344SRF, Wild Type; assay type: cell-based, Enterococcus faecium; details: strain Wild Type; disks Ampicillin 10 μg, Penicillin 10 U, Ceftriaxone 30 μg; BHI agar, 37 °C, 24 h; n=3
# Protocol: (§1) E. faecium strains were streaked fresh from −80 °C stored glycerol stocks onto brain heart infusion (BHI) agar plates and incubated for 18 h at 37 °C. Strains harboring the plasmid derivatives were grown under antibiotic pressure on agar plates containing kanamycin at 1500 µg/ml. A single colony was inoculated into BHI or BHI-kanamycin (1500 µg/ml) for overnight cultures (18 h).
# Antibiotic disks used were manufactured by BD BBL^TM. Disk diffusion assays were performed according to the Clinical and Laboratory Standards Institute (CLSI) guidance. Overnight cultures were inoculated into 3 ml of BHI or BHI-kanamycin (1500 µg/ml) broth with a dilution of 1:100 and incubated until an OD600 of ~0.5 was reached. The OD600 was adjusted to 0.01 to get the inoculum suspension. […] The plates were incubated at 37 °C and the zones of inhibition were measured after 24 h. All experiments were conducted in triplicate.
# [2] = system: E. faecium D344SRF pCWR624 (PBP5 plasmid); assay: Disk diffusion assay, pCWR624; assay type: cell-based, Enterococcus faecium; details: strain pCWR624; 37 °C, 24 h; n=3
# Protocol: (§2) The synthetic genes were purchased from GeneWiz (South Plainfield, NJ). The ribosome binding site sequence AGGAGG (Shine-Dalgarno), and a string of five A’s followed by the sequence […], that corresponds to the first 15 bp found in pbp5 from E. faecium C68 were added upstream of the START codon. The terminator sequence […] was added downstream of the STOP codon. BamHI restriction sites were added to the flanking 5′ and 3′ ends. The synthetic genes were inserted into the vector pCWR624Δpbp5. This vector was derived from pCWR624[10], in which the pbp5 gene from D366 was excised by digestion with BamHI followed by re-ligation of the vector, allowing subsequent insertion of modified synthetic pbp5s into the BamHI site downstream of ftsWEfm and psr from E. faecium C68[10]. The synthetic genes were inserted in a BamHI site located downstream of psr. The proper orientation was confirmed by PCR amplification using the forward primer OR_pbp5_FOR_1 (5′-[…]-3′) and the reverse primer OR_pbp5_REV_1 (5′-[…]-3′). Plasmids were sequence verified for the specific binding site mutations. The resulting constructions were electroporated into the natural pbp5(-) mutant E. faecium D344SRF with a selection on brain heart infusion agar (BHI) plates containing kanamycin (1500 µg/ml).
# as §1
# (§3) Antibiotic disks used were manufactured by BD BBL^TM. Disk diffusion assays were performed according to the Clinical and Laboratory Standards Institute (CLSI) guidance. Overnight cultures were inoculated into 3 ml of BHI or BHI-kanamycin (1500 µg/ml) broth with a dilution of 1:100 and incubated until an OD600 of ~0.5 was reached. […] The plates were incubated at 37 °C and the zones of inhibition were measured after 24 h. […]
# [3] = system: E. faecium D344SRF pCWR624Δpbp5 (empty plasmid); assay: Disk diffusion assay, pCWR624Δpbp5; assay type: cell-based, Enterococcus faecium; details: strain pCWR624Δpbp5; 37 °C, 24 h; n=3
# Protocol: as §2, §1, §3
# [4] = system: E. faecium D344SRF pCWR624Δpbp5_pbp5_V3; assay: Disk diffusion assay, pbp5_V3; assay type: cell-based, Enterococcus faecium; details: strain pbp5_V3 (loop 625-631); 37 °C, 24 h; n=3
# Protocol: as §2, §1, §3
# [5] = system: E. faecium D344SRF pCWR624Δpbp5_pbp5_V4; assay: Disk diffusion assay, pbp5_V4; assay type: cell-based, Enterococcus faecium; details: strain pbp5_V4 (D530A_L533A_W457A); 37 °C, 24 h; n=3
# Protocol: as §2, §1, §3
# [6] = system: E. faecium D344SRF pCWR624Δpbp5_pbp5_V6; assay: Disk diffusion assay, pbp5_V6; assay type: cell-based, Enterococcus faecium; details: strain pbp5_V6 (E284A_E291A_S294A_N295A); 37 °C, 24 h; n=3
# Protocol: as §2, §1, §3
# [7] = system: E. faecium D344SRF pCWR624 (PBP5 plasmid); assay: MIC by broth microdilution, pCWR624; assay type: cell-based, Enterococcus faecium; details: strain pCWR624; 37 °C, 20 h; n=3
# Protocol: as §2, §1
# (§4) MIC determination was performed using a standard broth microdilution technique in duplicate from independent cultures. Overnight cultures were inoculated into 3 ml of BHI or BHI-kanamycin (1500 µg/ml) broth in a dilution of 1:100 and incubated until an OD600 of ~0.5 was reached. Cultures were diluted 1:1000 and inoculated into the 96-well plates with the corresponding antibiotics to be tested. Plates were incubated at 37 °C for 20 h and read by eye. […]
# [8] = system: E. faecium D344SRF pCWR624Δpbp5 (empty plasmid); assay: MIC by broth microdilution, pCWR624Δpbp5; assay type: cell-based, Enterococcus faecium; details: strain pCWR624Δpbp5; 37 °C, 20 h; n=3
# Protocol: as §2, §1, §4
# [9] = system: E. faecium D344SRF pCWR624Δpbp5_pbp5_V2; assay: MIC by broth microdilution, pbp5_V2; assay type: cell-based, Enterococcus faecium; details: strain pbp5_V2 (N523A_Q627A); 37 °C, 20 h; n=3
# Protocol: as §1
# [10] = system: E. faecium D344SRF pCWR624Δpbp5_pbp5_V4; assay: MIC by broth microdilution, pbp5_V4; assay type: cell-based, Enterococcus faecium; details: strain pbp5_V4 (D530A_L533A_W457A); 37 °C, 20 h; n=3
# Protocol: as §2, with “The resulting constructions were electroporated into the natural pbp5(-) mutant E. faecium D344SRF with a selection on brain heart infusion agar (BHI) plates containing kanamycin (1500 µg/ml).” left out
# MIC determination was performed using a standard broth microdilution technique in duplicate from independent cultures. […] Plates were incubated at 37 °C for 20 h and read by eye. […]
# PBP5-S422A = assay: 1D 1H STD NMR of SP2 with PBP5-S422A; assay type: binding, Enterococcus faecium; details: for STD amplification factor, 2000: 2 s saturation
# Text: Total saturation time for STD measurements was 2 s.
# Overlapped peaks were completely excluded from the analysis.
compound,measurement,setting,value
"CO/N=C(\C(=O)N[C@@H]1C(=O)N2C(C(=O)O)=C(CSc3nc(=O)c(=O)[nH]n3C)CS[C@H]12)c1csc(N)n1 [Ceftriaxone, ceftriaxone]",Zone Size (mm) [Range],[1],20 [20-26] mm
same,Zone Size (mm) [Range],[2],0 [0] mm
same,Zone Size (mm) [Range],[3],24 [22-28] mm
same,Zone Size (mm) [Range],[4],28 [26-28] mm
same,Zone Size (mm) [Range],[5],26 [26-28] mm
same,Zone Size (mm) [Range],[6],0 [0] mm
same,MIC (µg/ml) [Range],[7],> 3200 [3200->3200] µg/ml
same,MIC (µg/ml) [Range],[8],50 [25-100] µg/ml
same,MIC (µg/ml) [Range],[9],50 [50-100] µg/ml
same,MIC (µg/ml) [Range],[10],25 [25-50] µg/ml
D-Lac-L-Ala-D-iGln-L-Lys(D-iAsn) [SP2],STD % to SP1,PBP5-S422A; 1H DLacβ,42.7391%
same,STD amplification factor as fraction of highest SP1:PBP5 value,PBP5-S422A; 1H DLacβ,0.4274
same,"STD amplification factor, 2000",PBP5-S422A; 1H DLacβ,11.5004
same,STD % to SP1,PBP5-S422A; 1H DQ2β (first listed),84.4303%
same,STD amplification factor as fraction of highest SP1:PBP5 value,PBP5-S422A; 1H DQ2β (first listed),0.8443
same,"STD amplification factor, 2000",PBP5-S422A; 1H DQ2β (first listed),22.7188
same,STD % to SP1,PBP5-S422A; 1H DQ2β (second listed),106.599%
same,STD amplification factor as fraction of highest SP1:PBP5 value,PBP5-S422A; 1H DQ2β (second listed),1.066
same,"STD amplification factor, 2000",PBP5-S422A; 1H DQ2β (second listed),28.6841
same,STD % to SP1,PBP5-S422A; 1H DQ2γ,33.2164%
same,STD amplification factor as fraction of highest SP1:PBP5 value,PBP5-S422A; 1H DQ2γ,0.3322
same,"STD amplification factor, 2000",PBP5-S422A; 1H DQ2γ,8.938
same,STD % to SP1,PBP5-S422A; 1H K3α,52.4105%
same,STD amplification factor as fraction of highest SP1:PBP5 value,PBP5-S422A; 1H K3α,0.5241
same,"STD amplification factor, 2000",PBP5-S422A; 1H K3α,14.1028
same,STD % to SP1,PBP5-S422A; 1H K3β,115.403%
same,STD amplification factor as fraction of highest SP1:PBP5 value,PBP5-S422A; 1H K3β,1.154
same,"STD amplification factor, 2000",PBP5-S422A; 1H K3β,31.053
same,STD % to SP1,PBP5-S422A; 1H K3γ,71.5712%
same,STD amplification factor as fraction of highest SP1:PBP5 value,PBP5-S422A; 1H K3γ,0.7157
same,"STD amplification factor, 2000",PBP5-S422A; 1H K3γ,19.2587
same,STD % to SP1,PBP5-S422A; 1H K3δ,86.8848%
same,STD amplification factor as fraction of highest SP1:PBP5 value,PBP5-S422A; 1H K3δ,0.8688
same,"STD amplification factor, 2000",PBP5-S422A; 1H K3δ,23.3793
same,STD % to SP1,PBP5-S422A; 1H K3ε,15.5454%
same,STD amplification factor as fraction of highest SP1:PBP5 value,PBP5-S422A; 1H K3ε,0.1555
same,"STD amplification factor, 2000",PBP5-S422A; 1H K3ε,4.183
same,STD % to SP1,PBP5-S422A; 1H LA1α,31.0506%
same,STD amplification factor as fraction of highest SP1:PBP5 value,PBP5-S422A; 1H LA1α,0.3105
same,"STD amplification factor, 2000",PBP5-S422A; 1H LA1α,8.355
same,STD % to SP1,PBP5-S422A; 1H LA1β,44.3762%
same,STD amplification factor as fraction of highest SP1:PBP5 value,PBP5-S422A; 1H LA1β,0.4438
same,"STD amplification factor, 2000",PBP5-S422A; 1H LA1β,11.9409
same,STD % to SP1,"PBP5-S422A; 1H iNα,DQ2α",24.4286%
same,STD amplification factor as fraction of highest SP1:PBP5 value,"PBP5-S422A; 1H iNα,DQ2α",0.2443
same,"STD amplification factor, 2000","PBP5-S422A; 1H iNα,DQ2α",6.573
same,STD % to SP1,PBP5-S422A; 1H iNβ,38.4337%
same,STD amplification factor as fraction of highest SP1:PBP5 value,PBP5-S422A; 1H iNβ,0.3843
same,"STD amplification factor, 2000",PBP5-S422A; 1H iNβ,10.3419
